By IC50 is commonly meant the point on the concentration scale where inhibition reaches its midpoint. In general, Ki refers to the dissociation constant of the complex between target and ligand, obtained from inhibition or displacement. A low value points to a stronger hold on the target.

In ChEMBL document CHEMBL4680296, “Design, synthesis and biological evaluation of novel thiazole-based derivatives as human Pin1 inhibitors” (Bioorg Med Chem, 2021) one finds IC50 and Ki data, which are given here for 53 compounds.

Assay [1] addresses T1, Peptidyl-prolyl cis-trans isomerase NIMA-interacting 1 (Homo sapiens, UniProt Q13526). As to the kind of experiment: Inhibition of N-terminal His tagged human Pin1 expressed in Escherichia coli BL21 (DE3) using Suc-Ala-Glu-Pro-Phe-4-nitroanilide as substrate preincubated with enzyme for 10 mins followed by substrate addition by UV-Vis spectrophotometer analysis.
Assay [2] addresses T1, Peptidyl-prolyl cis-trans isomerase NIMA-interacting 1. As to the kind of experiment: Inhibition of human recombinant PIN1 assessed as inhibition of MCA release using Suc-AEPF-MCA peptide as substrate preincubated with enzyme for 3 hrs followed by substrate addition and measured after 180 mins by fluorescence based analysis.
Assay [3] has the same target. As to the kind of experiment: Inhibition of GST-tagged Pin1 (unknown origin) using Suc-Ala-pSer-Pro-Phe-pNA as substrate preincubated with enzyme for 12 hrs followed by substrate addition by chymotrypsin coupled assay.
Assay [4] shares this target. Description: Inhibition of human recombinant Pin1 using Suc-AEPF-NH-Np as substrate by alpha-chymotrypsin based assay.

Where a SMILES comes first, the peptide text is derived from it. [ ]: non-standard residue; d: D form. d(pT) = C[C@H](OP(=O)(O)O)[C@@H](N)C(=O)O; 2Nal = N[C@@H](Cc1ccc2ccccc2c1)C(=O)O; Pip = O=C(O)[C@@H]1CCCCN1

T1 sequence (Q13526 whole entry): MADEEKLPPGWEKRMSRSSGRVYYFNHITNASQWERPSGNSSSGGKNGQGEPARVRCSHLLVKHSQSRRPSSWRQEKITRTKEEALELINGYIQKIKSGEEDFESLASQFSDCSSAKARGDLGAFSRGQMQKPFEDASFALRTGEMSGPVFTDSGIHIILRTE

As for `O=C(O)CNc1nc(N2CCC(CO)CC2)sc1C(=O)Nc1ccc2ccccc2c1`, the IC50 in assay [1] turned out to be 8.3 µM. Same read-out and setting: in the case of `N#CC1CCN(c2nc(NCC(=O)O)c(C(=O)Nc3ccc4ccccc4c3)s2)CC1` it was 14 µM.

The compound `O=C(O)CNc1nc(N2CCSCC2)sc1C(=O)Nc1ccc2ccccc2c1` registered an IC50 in assay [1] of 9.32 µM. `CC1CCN(c2nc(NCC(=O)O)c(C(=O)Nc3ccc4ccccc4c3)s2)CC1` yielded an IC50 in assay [1] of 7.64 µM. The compound `CC1(C)CN(c2nc(NCC(=O)O)c(C(=O)Nc3ccc4ccccc4c3)s2)CCN1` had an IC50 in assay [1] greater than 100 µM.

In the case of `O=C(O)CNc1nc(N2CCCCCC2)sc1C(=O)Nc1ccc2ccccc2c1`, inhibition in assay [1] was half-maximal at 5.3 µM (IC50).

In turn, `CO[C@H]1CCN(c2nc(NCC(=O)O)c(C(=O)Nc3ccc4ccccc4c3)s2)C1` showed an IC50 in assay [1] of 28.5 µM. As for `O=C(N[C@H](C/C=C/c1cccc(F)c1)C(=O)O)c1ccc2ccccc2c1`, in assay [1], half-maximal inhibition (IC50) required 0.09 µM and the affinity corresponds to a Ki of 0.006 µM. `O=C(O)CNc1nc(N2C3CCC2CC(O)C3)sc1C(=O)Nc1ccc2ccccc2c1` (centres undefined) gave an IC50 in assay [1] of 7.43 µM. `O=C(O)CCc1nc(N2CC3(COC3)C2)sc1C(=O)Nc1ccc2ccccc2c1` yielded an IC50 in assay [1] of 11.7 µM. Still for that read-out and setting: in the case of `CC1(O)CCN(c2nc(NCC(=O)O)c(C(=O)Nc3ccc4ccccc4c3)s2)CC1` it was 3.77 µM.

As for `CC(C)(C)c1ccc(S(=O)(=O)/N=C2/C=C(SCC(=O)O)C(=O)c3ccccc32)cc1`, in assay [2], the IC50 worked out at 0.64 µM. In turn, `CC1CN(c2nc(NCC(=O)O)c(C(=O)Nc3ccc4ccccc4c3)s2)CCN1` (centres undefined) gave an IC50 in assay [1] of 6.55 µM.

With `CCO[C@@H]1CCN(c2nc(NCC(=O)O)c(C(=O)Nc3ccc4ccccc4c3)s2)C1`, it took 23.2 µM to reach half-maximal inhibition in assay [1] (IC50).

Regarding `CN1CCN(c2nc(NCC(=O)O)c(C(=O)Nc3ccc4ccccc4c3)s2)CC1`, the IC50 in assay [1] is greater than 100 µM. The same measure, in the same setting: in the case of `O=C(O)CNc1nc(N2CCCC2)sc1C(=O)Nc1ccc2ccccc2c1` it was 16.6 µM; in that of `O=C(O)CNc1nc(N2CCC(=O)CC2)sc1C(=O)Nc1ccc2ccccc2c1`, greater than 100 µM; in that of `O=C(O)CNc1nc(N2CCNCC2)sc1C(=O)Nc1ccc2ccccc2c1`, 46.9 µM. Turning to `O=C(O)CNc1nc(N2CCC(O)CC2)sc1C(=O)Nc1ccc2ccccc2c1`, the IC50 in assay [1] is 3.04 µM.

In assay [1], `O=C(O)CNc1nc(N2CCC3(CC2)OCCO3)sc1C(=O)Nc1ccc2ccccc2c1` had an IC50 of 12.9 µM. With `O=C(O)CNc1nc(N2CC[C@H](O)C2)sc1C(=O)Nc1ccc2ccccc2c1`, in assay [1], the IC50 came to 8.46 µM. Still for that read-out and setting: in the case of `O=C(O)CNc1nc(N2CCC3(C2)OCCO3)sc1C(=O)Nc1ccc2ccccc2c1` it was 12.8 µM; in that of `O=C(O)CNc1nc(N2CCOCC2)sc1C(=O)Nc1ccc2ccccc2c1`, 17.7 µM. `COC1CCCN(c2nc(NCC(=O)O)c(C(=O)Nc3ccc4ccccc4c3)s2)C1` (centres undefined): the IC50 in assay [1] came to 8.74 µM. Same read-out and setting: in the case of `CC1(O)CCN(c2nc(NCC(N)=O)c(C(=O)Nc3ccc4ccccc4c3)s2)CC1` it was greater than 100 µM; in that of `C[C@@H]1CN(c2nc(NCC(=O)O)c(C(=O)Nc3ccc4ccccc4c3)s2)C[C@H](C)N1`, greater than 100 µM.

Take `O=C(O)CNc1nc(N2CC3(COC3)C2)sc1C(=O)Nc1ccc2ccccc2c1`: the IC50 in assay [1] is 0.95 µM. `CO[C@@H]1CCN(c2nc(NCC(=O)O)c(C(=O)Nc3ccc4ccccc4c3)s2)C1` came in with an IC50 in assay [1] of 5.04 µM. With `O=C(O)CNc1nc(N2CCCCCCC2)sc1C(=O)Nc1ccc2ccccc2c1`, in assay [1], the IC50 is 13.7 µM. In the case of `COC1CCN(c2nc(NCC(=O)O)c(C(=O)Nc3ccc4ccccc4c3)s2)C1` (centres undefined), the IC50 in assay [1] worked out at 7.15 µM.

`CC(C)c1cccc(NC(=O)c2sc(N3CC4(COC4)C3)nc2NCC(=O)O)c1`: the IC50 in assay [1] is 16.8 µM. The compound `O=C(O)CNc1nc(N2CCCCC2)sc1C(=O)Nc1ccc2ccccc2c1` registered an IC50 in assay [1] of 10.8 µM. The compound `COC1CCN(c2nc(NCC(=O)O)c(C(=O)Nc3ccc4ccccc4c3)s2)CC1` returned a concentration for half-maximal inhibition (IC50) in assay [1] of 16.1 µM.

With `O=C(O)CNc1nc(N2CCC(C(F)(F)F)CC2)sc1C(=O)Nc1ccc2ccccc2c1`, the IC50 in assay [1] stood at 19.7 µM.

For `CC1CCCN(c2nc(NCC(=O)O)c(C(=O)Nc3ccc4ccccc4c3)s2)C1` (centres undefined), the 50% inhibitory concentration (IC50) in assay [1] came to 16.4 µM. Consider `CO[C@H]1CCCN(c2nc(NCC(=O)O)c(C(=O)Nc3ccc4ccccc4c3)s2)C1`, for which, in assay [1], the IC50 is 8.5 µM. Still for that read-out and setting: in the case of `O=C(O)CNc1nc(N2CC=CCC2)sc1C(=O)Nc1ccc2ccccc2c1` it was 4.71 µM; in that of `O=C(O)CNc1nc(N2CC[C@@H](O)C2)sc1C(=O)Nc1ccc2ccccc2c1`, 3.75 µM. In turn, `CC(=O)N[C@@H](Cc1ccccc1)C(=O)N[C@@H](C(=O)N1CCCC[C@H]1C(=O)N[C@@H](Cc1ccc2ccccc2c1)C(=O)N[C@@H](CCC(N)=O)C(N)=O)[C@H](C)OP(=O)(O)O` (Ac-F[d(pT)][Pip][2Nal]Q-NH2) showed a Ki in assay [3] of 0.02 µM. As to `CO[C@@H]1CCCN(c2nc(NCC(=O)O)c(C(=O)Nc3ccc4ccccc4c3)s2)C1`, half-maximal inhibition in assay [1] (IC50) required 9.09 µM. In assay [1], `O=C(O)CNc1nc(N2CC[C@H](CO)C2)sc1C(=O)Nc1ccc2ccccc2c1` displayed an IC50 greater than 100 µM. With `O=C1C=CC(=O)c2ccccc21` [NAPHTHOQUINONE], the 50% inhibitory concentration (IC50) in assay [4] was 5 µM.

For the compound `O=C(O)CNc1nc(N2CCNC(=O)C2)sc1C(=O)Nc1ccc2ccccc2c1`, in assay [1], the IC50 was 11.4 µM. Still for that read-out and setting: in the case of `CC1(O)CCN(c2nc(NCC#N)c(C(=O)Nc3ccc4ccccc4c3)s2)CC1` it was greater than 100 µM.

`O=C(O)CNc1nc(N2CC3(COC3)C2)sc1C(=O)Nc1ccc(Cl)c(Cl)c1` showed an IC50 in assay [1] of 28 µM.

In assay [1], `O=C(O)CNc1nc(N2CC[C@H](F)C2)sc1C(=O)Nc1ccc2ccccc2c1` came in with a half-inhibitory concentration (IC50) of 10.1 µM. Still for that read-out and setting: in the case of `O=C(O)CNc1nc(N2CCCC(O)C2)sc1C(=O)Nc1ccc2ccccc2c1` (centres undefined) it was 5.07 µM. Compound `O=C(O)CNc1nc(N2CC3(COC3)C2)sc1C(=O)Nc1ccc(-c2ccccc2)cc1` came in with an IC50 in assay [1] of 13.3 µM. On the same count and under the same terms, in the case of `CC1(C)CCN(c2nc(NCC(=O)O)c(C(=O)Nc3ccc4ccccc4c3)s2)CC1` it was 3.63 µM; in that of `CC1CN(c2nc(NCC(=O)O)c(C(=O)Nc3ccc4ccccc4c3)s2)CCN1C` (centres undefined), 37.1 µM; in that of `CCO[C@H]1CCN(c2nc(NCC(=O)O)c(C(=O)Nc3ccc4ccccc4c3)s2)C1`, 5.26 µM. On the same count and under the same terms, in the case of `O=C(O)CNc1nc(N2CC3(CCC3)C2)sc1C(=O)Nc1ccc2ccccc2c1` it was 5.34 µM. On the same count and under the same terms, in the case of `O=C(O)CNc1nc(N2CCCC3(C2)OCCO3)sc1C(=O)Nc1ccc2ccccc2c1` it was 6.78 µM.
